The values below come from paper PMC4541799 (Journal of ethnopharmacology, 2015).

Usually IC50 stands for the concentration at which inhibition is half-maximal. Lower therefore signals greater potency.

The structures appear in SMILES notation. ≈ marks a conversion by molar mass, not a printed value.

The subject of data set [1] is SCC2095 (oral squamous cell carcinoma cell line). Description: Anti-proliferation MTT assay in SCC2095 cell line. Type of data set: cell-based, human. In general terms: Formazan colour is commonly taken as a measure of viable cells.
Data set [2] concerns SCC2095 cells. Description: Cellular uptake / intracellular accumulation in SCC2095 cells. Particulars: SCC2095 cells incubated with GS409, at different incubation time (2 or 4 hours). It is filed as in vitro ADME, human.
In data set [3] the test system is Caco-2 cell monolayer. Description: Transport study in Caco-2 cell culture model. It is filed as in vitro ADME, human. Particulars: translated from Caco-2 permeability; ref Artursson & Karlsson, 1991.
[4] abbreviates: SCC2095 cell line, MTT, 48 hours incubation.

Consider `CC1(C)O[C@H]2CC(=O)OC[C@]23[C@H]2CC[C@@]4(C)[C@H](c5ccoc5)OC(=O)[C@H]5O[C@]54[C@]2(C)C(=O)C[C@@H]13` [Limonin, limonin], for which the IC50 in data set [1] (Homo sapiens, 48 h) was more than 100 µg/mL.

Compound `O=C1CCC[C@@H]2[C@H]3CCCN4CCC[C@@H](CN12)[C@@H]34` [Matrine, matrine] gave a concentration for half-maximal inhibition (IC50) in data set [1] (Homo sapiens, 48 h) of more than 100 µg/mL.

Consider `CC1(C)OC(=O)C=C[C@]2(C)[C@H]3CC[C@@]4(C)[C@H](c5ccoc5)OC(=O)[C@H]5O[C@]54[C@]3(C)C(=O)C[C@@H]12` [Obacunone, obacunone], for which, in data set [1] (Homo sapiens, 48 h), the IC50 is more than 100 µg/mL.

`OC[C@H]1O[C@@H](Oc2ccc3c(c2)OC[C@H]2c4cc5c(cc4O[C@@H]32)OCO5)[C@H](O)[C@@H](O)[C@@H]1O` [Trifolirhizin, trifolirhizin] had an IC50 in data set [1] (Homo sapiens, 48 h) of more than 100 µg/mL.

`CC1(C)O[C@H]2CC(=O)OC[C@]23[C@H]2CC[C@@]4(C)[C@H](c5ccoc5)OC(=O)[C@H]5O[C@]54[C@]2(C)[C@@H](O)C(=O)[C@@H]13` [Rutaevine, rutaevine] had a half-inhibitory concentration (IC50) in data set [1] (setting [4]) of more than 100 µg/mL.

In data set [1] (setting [4]), `CC1(C)O[C@H]2CC(=O)OC[C@@]23C1=C(O)C(=O)[C@]1(C)[C@@H]3CC[C@@]2(C)[C@H](c3ccoc3)OC(=O)[C@H]3O[C@]321` [Evodol, evodol] displayed an IC50 of more than 100 µg/mL.

Take `CC1=C2C(=O)O[C@@H](c3ccoc3)[C@]2(C)CCC1` [Fraxinellone, fraxinellone]: inhibition in data set [1] (Homo sapiens, 48 h) was half-maximal at 28.6 µg/mL (≈ 123 µM) (IC50). For the same compound, the “intracellular accumulation among the 9 components” value in data set [2] was “relatively high”. Also, the “absorption in the human intestine following oral administration” value in data set [3] was “more than 70%”.

`Oc1ccc2c(c1)OC[C@H]1c3cc4c(cc3O[C@@H]21)OCO4` [Maackiain, maackiain] yielded an IC50 in data set [1] (Homo sapiens, 48 h) of 86.3 µg/mL (≈ 304 µM). Further, the “intracellular accumulation among the 9 components” value in data set [2] is listed as “relatively high”.

`O=c1[nH]cc(F)c(=O)[nH]1` [5-Fu (positive control), reference compound] came in with an IC50 in data set [1] (setting [4]) of 28.61 µg/mL (≈ 220 µM).
